Experimental data reported in publication PMC3057987 (PLoS ONE, 2011).
Ends that are not written are not given here.

Assays:
[1] = system: p53 pathway in HCT116-p53+/+ cells; test: Activation of the p53 pathway (western blot, quantitative RT-PCR) in HCT116-p53+/+ cells; type: cell-based, human; conditions: plasmid transfection
Method: (§1) Figure 4 Functional analyses of GFP-MIP in living cells. […] (A) Immunoprecipitation assays with anti-GFP were performed followed by western blot with an anti-MDM2 antibody. I, input; F, flow-through; B, beads. (B) The whole cell lysates were analyzed by western blot with antibodies against p53, MDM2, p21 and β-actin. (C) mRNA levels of p53, MDM2, p21 and GAPDH were determined by quantitative reverse transcription-PCR using total RNA extracted from the cells. GAPDH was used for normalization.
Figure 5 Activation of the p53 pathway by inhibiting the MDM2-p53 interaction. […] After 48 h, immunoprecipitation assay with anti-FLAG antibody was performed followed by western blot with anti-MDM2 or anti-FLAG antibody. […] After 24 h, the whole cell lysates were analyzed by western blot with antibodies against p53, p21 and β-actin. […] After 24 h, mRNA levels of p53, MDM2, p21 and GAPDH were determined by quantitative reverse transcription-PCR using total RNA extracted from the cells. GAPDH was used for normalization.
(§2) Whole cell lysate was analyzed by western blot analysis with antibodies against p53 (Cell signaling, Beverly, MA, […]), MDM2 (SMP14, Santa Cruz), p21 (SX118, Pharmingen, San Diego, CA, USA) and β-actin (AC-15, Sigma). The blots were developed using an ECL chemiluminescence kit (GE Healthcare, Waukesha, WI, USA).
Total RNA was extracted with the RNeasy mini kit from cells. The RNA was used as template for the real-time RT-PCR reaction with the QuantiTect SYBR Green RT-PCR kit (Qiagen) using the p53F and p53R primer set, the mdm2F and mdm2R primer set or the p21F and p21R primer set. The GAPDH gene was used for normalization with the Light cycler primer sets (Roche, Basel, Switzerland).

HCT116-p53+/+ cells = test: WST-1 cell viability / cell growth assay in HCT116-p53+/+ cells; type: cell-based; conditions: plasmid transfection, data not shown
[2] = system: p53 pathway in SW480 cells (p53 mt); test: Activation of the p53 pathway (western blot) in SW480 cells; type: cell-based; conditions: SW480 cells containing inactive mutated p53, plasmid transfection
Method: as §1, §2

MDM2-p53 interaction = target: T1, MDM2-p53 interaction (Homo sapiens, UniProt Q00987); test: ELISA of MDM2 (7-300) bound to immobilized His6-p53 in the presence of synthetic peptides; type: binding
T1 construct: In vitro-translated MDM2 (7–300 amino acids) mixed with the synthetic peptides; made in house; host or cells: MDM2: in vitro translated (wheat germ cell-free system for the bait preparation); p53: E. coli BL21 (DE3) codon+
Method: (§3) The resulting plasmid was transformed into the E. coli strain BL21 (DE3) codon+. The cells were grown in LB with 50 µg/ml carbenicillin at 37°C to an optical density (OD600) of 0.5 and induced with 1 mM IPTG for 6 h. […] After washing with PBST, the plates were blocked with 5% skim milk at 4°C for 30 min. […] The RNA was purified with the RNeasy mini kit and in vitro-translated in a wheat germ cell-free translation system to produce MDMX protein.

MDMX-p53 interaction = target: T2, MDMX-p53 interaction (Homo sapiens, UniProt O15151); test: ELISA of MDMX (1-200) bound to immobilized His6-p53 in the presence of synthetic peptides; type: binding
T2 construct: the cDNA of MDMX (1–200 amino acids) was amplified by PCR; made in house; host or cells: MDMX: wheat germ cell-free translation system; p53: E. coli BL21 (DE3) codon+
T2 sequence (O15151 1-200): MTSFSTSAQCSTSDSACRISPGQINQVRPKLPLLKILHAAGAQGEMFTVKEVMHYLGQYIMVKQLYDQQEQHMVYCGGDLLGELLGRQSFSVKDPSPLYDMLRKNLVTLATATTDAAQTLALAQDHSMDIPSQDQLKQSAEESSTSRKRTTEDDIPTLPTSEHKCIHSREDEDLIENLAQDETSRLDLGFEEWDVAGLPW
Method: as §3

[3] = target: T3, MDM2_(7–300) fused to the TAP tag (human (A549 cell-derived cDNA library), UniProt Q00987 7-300); test: ELISA; competition: synthetic peptide at various concentrations mixed with in vitro-translated MDM2 (7–300) or MDMX (1–200) in binding buffer (5% skim milk, 10% glycerol), added to His6-p53 immobilized on copper-coated plates, 1 h at room temperature; detection with anti-MDM2 (SMP14) or anti-FLAG M2; conditions: one partner purified
T3 construct: MDM2, residues 7-300, cDNA amplified from an A549 cell-derived cDNA library; primers and plasmid are named MDM(1–294) / pCMV-MDM294-CBPzz; The ELISA methods name only 'in vitro-translated MDM2 (7–300 amino acids)'; also called TAP-tagged MDM2; MDM2 (7–300 amino acids); source: in vitro translated (wheat germ cell-free translation system); immobilised on IgG beads for the pull-down

MDMX (1–200 amino acids) = target: T4, MDMX (1–200 amino acids) (human, UniProt O15151 1-200); test: as above; conditions: one partner purified
T4 construct: MDMX, residues 1-200, cDNA amplified from a Human Mosaic cDNA template; also called MDMX(1–200)-FLAG; source: in vitro translated (wheat germ cell-free translation system)
T4 sequence (looked up): T2 sequence (O15151 1-200)

T3 sequence (Q00987 7-300): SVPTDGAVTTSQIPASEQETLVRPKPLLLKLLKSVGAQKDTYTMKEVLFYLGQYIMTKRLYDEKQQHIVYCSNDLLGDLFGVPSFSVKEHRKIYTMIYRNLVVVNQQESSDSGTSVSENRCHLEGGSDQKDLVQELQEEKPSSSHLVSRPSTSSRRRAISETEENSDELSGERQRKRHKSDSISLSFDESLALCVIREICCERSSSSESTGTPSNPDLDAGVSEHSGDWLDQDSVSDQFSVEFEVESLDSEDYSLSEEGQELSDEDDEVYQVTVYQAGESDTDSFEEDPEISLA

## GFP-MIP: GFP-fused MIP (PRFWEYWLRLME; also: GFP-fused, end not given here)
[1]; quantitative RT-PCR
  MDM2 and p21 at the mRNA level: increased
  p53 mRNA level: no effect
[1]; western blot
  p53 and its targets (MDM2 and p21) at the protein level: increase
HCT116-p53+/+ cells
  proliferation of cells expressing the GFP-fused peptide: not inhibited
[2]
  p53 and its targets (MDM2 and p21) at the protein level: not

## LTAEHYAAQATS [3A, reference compound]
MDM2-p53 interaction
  IC50: > 100000 nM
MDMX-p53 interaction
  IC50: > 100000 nM

## PRFWEAWLRLME [MIP (Y6A)]
MDM2-p53 interaction
  IC50: > 100000 nM

## PRFWEYALRLME [MIP (W7A)]
MDM2-p53 interaction
  IC50: > 100000 nM

B1: MIP (F3A), synthetic peptide (peptide)
peptide: PRAWEYWLRLME
notes: MIP with Phe3 replaced by Ala; source: synthetic peptide
[3]
  IC50: 570 nM

B2: MIP (L10A), synthetic peptide (peptide)
peptide: PRFWEYWLRAME
notes: MIP with Leu10 replaced by Ala; source: synthetic peptide
[3]
  IC50: 1140 nM

B3: MIP (R9A), synthetic peptide (peptide)
peptide: PRFWEYWLALME
notes: MIP with Arg9 replaced by Ala; source: synthetic peptide
[3]
  IC50: 20 nM

B4: MIP (M11A), synthetic peptide (peptide)
peptide: PRFWEYWLRLAE
notes: MIP with Met11 replaced by Ala; source: synthetic peptide
[3]
  IC50: 400 nM

B5: MIP (MDM2 Inhibitory Peptide), synthetic peptide (peptide)
peptide: PRFWEYWLRLME
notes: 12-mer selected by mRNA display from a partially randomized library; also called X12-1; source: synthetic peptide
MDMX (1–200 amino acids)
  IC50: 120 nM
[3]
  IC50: 10 nM
